Like-named read-outs stand apart in the source and are kept apart here.
Tests used:
GST-MCL-1 = GST-MCL-1 (Homo sapiens, UniProt Q07820); test: TR-FRET MCL-1 binding assay (competition with probe F-Bak)
Procedure, shortened: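 Displacement of F-Bak from GST-MCL-1 is detected by time-resolved FRET with a Tb-labelled anti-GST antibody, with excitation 340/35 nm and emission 520/525 and 495/510 nm, after 2 hours at room temperature. Compounds were titrated in 11 three-fold steps starting at 25 μM final, in buffer alone or in 10% HS.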

[1] = tested on: NCI-H929 human multiple myeloma tumor cell line; test: NCI-H929 cell viability assay (CellTiter-Glo, 24 hours); format: cell-based; conditions: Homo sapiens, NCI-H929, 24 h, read-out: H929 Viability IC50 (μM, 10% FBS), 10% FBS, 24 hours of compound treatment
[2] = tested on: AMO-1 human multiple myeloma tumor cell line; test: AMO-1 cell viability assay (CellTiter-Glo, 24 hours); format: cell-based; conditions: Homo sapiens, AMO1, 24 h, read-out: AMO-1 Viability IC50 (μM, 10% FBS), 10% FBS, 24 hours of compound treatment
[3] = MCL-1 Binding Ki (nM, 10% HS), in the presence of 10% HS (human serum)
[4] = without HS, read-out: MCL-1 Binding Ki

Sequence of GST-MCL-1 (Q07820 whole entry): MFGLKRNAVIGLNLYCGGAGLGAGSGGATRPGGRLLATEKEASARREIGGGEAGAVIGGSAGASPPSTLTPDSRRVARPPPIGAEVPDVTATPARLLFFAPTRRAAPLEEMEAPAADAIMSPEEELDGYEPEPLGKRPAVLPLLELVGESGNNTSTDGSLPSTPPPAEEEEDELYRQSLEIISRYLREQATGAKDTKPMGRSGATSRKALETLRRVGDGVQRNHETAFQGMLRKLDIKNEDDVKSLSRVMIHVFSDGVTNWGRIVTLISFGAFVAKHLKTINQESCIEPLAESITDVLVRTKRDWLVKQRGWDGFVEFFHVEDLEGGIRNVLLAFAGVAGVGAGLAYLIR

SMILES: CO[C@H]1O[C@H](COc2ccc(-c3nccc(COc4ccc5cc4C[C@H](C(=O)O)Oc4ncnc6sc(-c7ccc(F)cc7)c(c46)-c4ccc(c(Cl)c4C)CN(CCN4CCN(C)CC4)C5)n3)cc2)[C@@H](OC)[C@H](OC)[C@@H]1OC [Example 11, methyl 6-O-{4-[4-({[(7R,20S)-7-carboxy-18-chloro-1-(4-fluorophenyl)-19-methyl-15-[2-(4-methylpiperazin-1-yl)ethyl]-7,8,15,16-tetrahydro-14H-17,20-etheno-13,9-(metheno)-6-oxa-2-thia-3,5,15-triazacyclooctadeca[1,2,3-cd]inden-10-yl]oxy}methyl)pyrimidin-2-yl]phenyl}-2,3,4-tri-O-methyl-a-D-mannopyranoside]
- Ki (GST-MCL-1; [3]): 2.34 nM
- Ki (GST-MCL-1; [4]): 0.374 nM
- IC50 [1]: 0.514 µM
- IC50 [2]: 0.363 µM

SMILES: CO[C@H]1O[C@H](COc2ccc(-c3nccc(COc4ccc5cc4C[C@H](C(=O)O)Oc4ncnc6sc(-c7ccc(F)cc7)c(c46)-c4ccc(c(Cl)c4C)O[C@H](CN4CCN(C)CC4)CO5)n3)cc2)[C@@H](O)[C@H](O)[C@@H]1O [Example 12, methyl 6-O-{4-[4-({[(7R,16R,21S)-7-carboxy-19-chloro-1-(4-fluorophenyl)-20-methyl-16-[(4-methylpiperazin-1-yl)methyl]-7,8,15,16-tetrahydro-18,21-etheno-13,9-(metheno)-6,14,17-trioxa-2-thia-3,5-diazacyclononadeca[1,2,3-cd]inden-10-yl]oxy}methyl)pyrimidin-2-yl]phenyl}-a-D-mannopyranoside]
- Ki (GST-MCL-1; [3]): 0.227 nM
- Ki (GST-MCL-1; [4]): 0.603 nM
- IC50 [1]: 0.0316 µM
- IC50 [2]: 0.0187 µM

SMILES: CO[C@H]1O[C@H](COc2ccc(-c3nccc(COc4ccc5cc4C[C@H](C(=O)O)Oc4ncnc6sc(-c7ccc(F)cc7)c(c46)-c4ccc(c(Cl)c4C)O[C@H](CN4CCN(C)CC4)CO5)n3)cc2)[C@@H](OC)[C@H](OC)[C@@H]1OC [Example 14, methyl 6-O-{4-[4-({[(7R,16R,21S)-7-carboxy-19-chloro-1-(4-fluorophenyl)-20-methyl-16-[(4-methylpiperazin-1-yl)methyl]-7,8,15,16-tetrahydro-18,21-etheno-13,9-(metheno)-6,14,17-trioxa-2-thia-3,5-diazacyclononadeca[1,2,3-cd]inden-10-yl]oxy}methyl)pyrimidin-2-yl]phenyl}-2,3,4-tri-O-methyl-a-D-mannopyranoside]
- Ki (GST-MCL-1; [3]): 0.547 nM
- Ki (GST-MCL-1; [4]): 0.124 nM
- IC50 [1]: 0.00258 µM
- IC50 [2]: 0.00154 µM

SMILES: COCCOCCOCCOc1ccccc1-c1nccc(COc2ccc3cc2C[C@H](C(=O)O)Oc2ncnc4sc(-c5ccc(F)cc5)c(c24)-c2c(C)c(Cl)c(c(Cl)c2C)O[C@H](CN2CCN(C)CC2)CO3)n1 [Example 15, (7R,16R,21S)-19,23-dichloro-1-(4-fluorophenyl)-10-{[2-(2-{2-[2-(2-methoxyethoxy)ethoxy]ethoxy}phenyl)pyrimidin-4-yl]methoxy}-20,22-dimethyl-16-[(4-methylpiperazin-1-yl)methyl]-7,8,15,16-tetrahydro-18,21-etheno-9,13-(metheno)-6,14,17-trioxa-2-thia-3,5-diazacyclononadeca[1,2,3-cd]indene-7-carboxylic Acid]
- Ki (GST-MCL-1; [3]): 0.152 nM
- Ki (GST-MCL-1; [4]): 0.015 nM
- IC50 [1]: 0.000751 µM
- IC50 [2]: 0.000524 µM

SMILES: COCCOCCOCCOc1ccc(-c2nccc(COc3ccc4cc3C[C@H](C(=O)O)Oc3ncnc5sc(-c6ccc(F)cc6)c(c35)-c3c(C)c(Cl)c(c(Cl)c3C)O[C@H](CN3CCN(C)CC3)CO4)n2)cc1 [Example 16, (7R,16R)-19,23-dichloro-1-(4-fluorophenyl)-10-{[2-(4-{2-[2-(2-methoxyethoxy)ethoxy]ethoxy}phenyl)pyrimidin-4-yl]methoxy}-20,22-dimethyl-16-[(4-methylpiperazin-1-yl)methyl]-7,8,15,16-tetrahydro-18,21-etheno-13,9-(metheno)-6,14,17-trioxa-2-thia-3,5-diazacyclononadeca[1,2,3-cd]indene-7-carboxylic Acid]
- Ki (GST-MCL-1; [3]): 0.359 nM
- Ki (GST-MCL-1; [4]): 0.028 nM
- IC50 [1]: 0.000347 µM
- IC50 [2]: 0.000177 µM
